# System: colorectal cancer cell line HT-29 cells
# Test: Growth inhibitory effect against cancer cell lines (3H-thymidine uptake), HT-29
# Type: cell-based
# Settings: Homo sapiens, HT-29, inhibition of 3H-thymidine uptake; test substance 18 hrs, then 3H-thymidine 6 hrs; triplicate
# In short: (§1)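 Cells seeded at 1.0×10^4/well, grown 24 hrs, then exposed to compound in DMSO for 18 hrs before 6 hrs pulse with ^3H-thymidine (0.25 μCi/well). Harvested cell-incorporated radioactivity counted; IC50 is the concentration halving uptake versus DMSO control, triplicate.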
row,SMILES,IC50
1,CC(=O)Nc1cccc(-n2c(=O)n(C3CC3)c(=O)c3c(Nc4ccc(C(C)C)cc4F)n(C)c(=O)c(C)c32)c1 [Example 4-98],< 10 nM
2,Cc1c(=O)n(C)c(Nc2ccc(I)cc2F)c2c(=O)n(C3CC3)c(=O)n(-c3ccc(F)c(NS(C)(=O)=O)c3)c12 [Example 4-101],< 10 nM
3,C#Cc1ccc(Nc2c3c(=O)n(C4CC4)c(=O)n(-c4ccc(F)c(NC(C)=O)c4)c3c(C)c(=O)n2C)c(F)c1 [Example 4-102],10 to 100 nM
4,Cc1c(=O)n(C)c(Nc2ccc(I)cc2F)c2c(=O)n(C3CC3)c(=O)n(-c3ccc4nc[nH]c4c3)c12 [Example 4-107],< 10 nM
5,Cc1c(=O)n(C)c(Nc2ccc(I)cc2F)c2c(=O)n(C3CC3)c(=O)n(-c3cccc(N4CC(=O)NC4=O)c3)c12 [Example 4-109],< 10 nM
6,Cc1c(=O)n(C)c(Nc2ccc(I)cc2F)c2c(=O)n(C3CC3)c(=O)n(-c3cccc(NC4=NCCO4)c3)c12 [Example 4-110],< 10 nM

# Now from value to compound:
row,IC50,SMILES
1,< 10 nM,Cc1c(=O)n(C)c(Nc2ccc(I)cc2F)c2c(=O)n(C3CC3)c(=O)n(-c3ccc4nc(O)[nH]c4c3)c12 [Example 4-103]
2,< 10 nM,CSc1ccc(Nc2c3c(=O)n(C4CC4)c(=O)n(-c4cccc(NC(C)=O)c4)c3c(C)c(=O)n2C)c(F)c1 [Example 4-105]
3,< 10 nM,CSc1ccc(Nc2c3c(=O)n(C4CC4)c(=O)n(-c4cccc(NS(C)(=O)=O)c4)c3c(C)c(=O)n2C)c(F)c1 [Example 4-106]
4,< 10 nM,Cc1c(=O)n(C)c(Nc2ccc(I)cc2F)c2c(=O)n(C3CC3)c(=O)n(-c3cccc(N4C(=O)CNC4=O)c3)c12 [Example 4-108]

# System: p27 protein
# Test: p27 protein induction test (Western blotting)
# Type: cell-based
# Settings: test substance (0.1 1M), 24 hrs, ACHN cells or HT-29 cells, compared to DMSO, n=2
# In short: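 ACHN or HT-29 cells grown 24 h, then treated with test substance at […] (DMSO) for 24 h. Lysates normalised by protein content and probed by Western blot with anti-p27 antibody. Band density quantified by densitometer against DMSO control, n=2 averaged.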
row,SMILES,fold induction at 0.1 µM
1,CC(=O)Nc1cccc(-n2c(=O)n(C3CC3)c(=O)c3c(Nc4ccc(C(C)C)cc4F)n(C)c(=O)c(C)c32)c1 [Example 4-98],≥ 1.5
2,Cc1c(=O)n(C)c(Nc2ccc(I)cc2F)c2c(=O)n(C3CC3)c(=O)n(-c3ccc(F)c(NS(C)(=O)=O)c3)c12 [Example 4-101],≥ 1.5
3,C#Cc1ccc(Nc2c3c(=O)n(C4CC4)c(=O)n(-c4ccc(F)c(NC(C)=O)c4)c3c(C)c(=O)n2C)c(F)c1 [Example 4-102],≥ 1.5
4,Cc1c(=O)n(C)c(Nc2ccc(I)cc2F)c2c(=O)n(C3CC3)c(=O)n(-c3ccc4nc(O)[nH]c4c3)c12 [Example 4-103],≥ 1.5
5,CSc1ccc(Nc2c3c(=O)n(C4CC4)c(=O)n(-c4cccc(NC(C)=O)c4)c3c(C)c(=O)n2C)c(F)c1 [Example 4-105],≥ 1.5
6,CSc1ccc(Nc2c3c(=O)n(C4CC4)c(=O)n(-c4cccc(NS(C)(=O)=O)c4)c3c(C)c(=O)n2C)c(F)c1 [Example 4-106],≥ 1.5
7,Cc1c(=O)n(C)c(Nc2ccc(I)cc2F)c2c(=O)n(C3CC3)c(=O)n(-c3ccc4nc[nH]c4c3)c12 [Example 4-107],≥ 1.5
8,Cc1c(=O)n(C)c(Nc2ccc(I)cc2F)c2c(=O)n(C3CC3)c(=O)n(-c3cccc(N4C(=O)CNC4=O)c3)c12 [Example 4-108],≥ 1.5
9,Cc1c(=O)n(C)c(Nc2ccc(I)cc2F)c2c(=O)n(C3CC3)c(=O)n(-c3cccc(N4CC(=O)NC4=O)c3)c12 [Example 4-109],≥ 1.5
10,Cc1c(=O)n(C)c(Nc2ccc(I)cc2F)c2c(=O)n(C3CC3)c(=O)n(-c3cccc(NC4=NCCO4)c3)c12 [Example 4-110],≥ 1.5

# System: Renal cancer cell line ACHN cell
# Test: Growth inhibitory effect against cancer cell lines (3H-thymidine uptake), ACHN
# Type: cell-based
# Settings: Homo sapiens, ACHN
# In short: as §1
row,SMILES,IC50
1,CC(=O)Nc1cccc(-n2c(=O)n(C3CC3)c(=O)c3c(Nc4ccc(C(C)C)cc4F)n(C)c(=O)c(C)c32)c1 [Example 4-98],10 to 100 nM
2,Cc1c(=O)n(C)c(Nc2ccc(I)cc2F)c2c(=O)n(C3CC3)c(=O)n(-c3ccc(F)c(NS(C)(=O)=O)c3)c12 [Example 4-101],10 to 100 nM
3,C#Cc1ccc(Nc2c3c(=O)n(C4CC4)c(=O)n(-c4ccc(F)c(NC(C)=O)c4)c3c(C)c(=O)n2C)c(F)c1 [Example 4-102],100 to 1000 nM
4,Cc1c(=O)n(C)c(Nc2ccc(I)cc2F)c2c(=O)n(C3CC3)c(=O)n(-c3ccc4nc[nH]c4c3)c12 [Example 4-107],10 to 100 nM
5,Cc1c(=O)n(C)c(Nc2ccc(I)cc2F)c2c(=O)n(C3CC3)c(=O)n(-c3cccc(N4CC(=O)NC4=O)c3)c12 [Example 4-109],10 to 100 nM
6,Cc1c(=O)n(C)c(Nc2ccc(I)cc2F)c2c(=O)n(C3CC3)c(=O)n(-c3cccc(NC4=NCCO4)c3)c12 [Example 4-110],10 to 100 nM

# Further lines, results first:
row,IC50,SMILES
1,100 to 1000 nM,Cc1c(=O)n(C)c(Nc2ccc(I)cc2F)c2c(=O)n(C3CC3)c(=O)n(-c3ccc4nc(O)[nH]c4c3)c12 [Example 4-103]
2,10 to 100 nM,CSc1ccc(Nc2c3c(=O)n(C4CC4)c(=O)n(-c4cccc(NC(C)=O)c4)c3c(C)c(=O)n2C)c(F)c1 [Example 4-105]
3,10 to 100 nM,CSc1ccc(Nc2c3c(=O)n(C4CC4)c(=O)n(-c4cccc(NS(C)(=O)=O)c4)c3c(C)c(=O)n2C)c(F)c1 [Example 4-106]
4,10 to 100 nM,Cc1c(=O)n(C)c(Nc2ccc(I)cc2F)c2c(=O)n(C3CC3)c(=O)n(-c3cccc(N4C(=O)CNC4=O)c3)c12 [Example 4-108]

# System: p15 protein
# Test: Evaluation of p15 induction activity (Western blotting)
# Type: cell-based
# Settings: test substance 0.1 μM, 24 hrs, ACHN cells or HT-29 cells, compared to DMSO, n=2
# In short: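 p15 protein quantified by densitometry of anti-p15 Western blots (10 μg protein per lane, mean of n=2). Samples came from HT-29 or ACHN cells given 0.1 μM compound for 24 h after 24 h plating, with DMSO as control.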
row,SMILES,fold induction at 0.1 µM
1,CC(=O)Nc1cccc(-n2c(=O)n(C3CC3)c(=O)c3c(Nc4ccc(C(C)C)cc4F)n(C)c(=O)c(C)c32)c1 [Example 4-98],≥ 1.5
2,Cc1c(=O)n(C)c(Nc2ccc(I)cc2F)c2c(=O)n(C3CC3)c(=O)n(-c3ccc(F)c(NS(C)(=O)=O)c3)c12 [Example 4-101],≥ 1.5
3,C#Cc1ccc(Nc2c3c(=O)n(C4CC4)c(=O)n(-c4ccc(F)c(NC(C)=O)c4)c3c(C)c(=O)n2C)c(F)c1 [Example 4-102],≥ 1.5
4,Cc1c(=O)n(C)c(Nc2ccc(I)cc2F)c2c(=O)n(C3CC3)c(=O)n(-c3ccc4nc(O)[nH]c4c3)c12 [Example 4-103],≥ 1.5
5,CSc1ccc(Nc2c3c(=O)n(C4CC4)c(=O)n(-c4cccc(NC(C)=O)c4)c3c(C)c(=O)n2C)c(F)c1 [Example 4-105],≥ 1.5
6,CSc1ccc(Nc2c3c(=O)n(C4CC4)c(=O)n(-c4cccc(NS(C)(=O)=O)c4)c3c(C)c(=O)n2C)c(F)c1 [Example 4-106],≥ 1.5
7,Cc1c(=O)n(C)c(Nc2ccc(I)cc2F)c2c(=O)n(C3CC3)c(=O)n(-c3ccc4nc[nH]c4c3)c12 [Example 4-107],≥ 1.5
8,Cc1c(=O)n(C)c(Nc2ccc(I)cc2F)c2c(=O)n(C3CC3)c(=O)n(-c3cccc(N4C(=O)CNC4=O)c3)c12 [Example 4-108],≥ 1.5
9,Cc1c(=O)n(C)c(Nc2ccc(I)cc2F)c2c(=O)n(C3CC3)c(=O)n(-c3cccc(N4CC(=O)NC4=O)c3)c12 [Example 4-109],≥ 1.5
10,Cc1c(=O)n(C)c(Nc2ccc(I)cc2F)c2c(=O)n(C3CC3)c(=O)n(-c3cccc(NC4=NCCO4)c3)c12 [Example 4-110],≥ 1.5

# Source: patent US20180273531A1, “PYRIMIDINE COMPOUND AND MEDICAL USE THEREOF” (Japan Tobacco Inc., priority 2004, published 2018)
